The test addresses benzodiazepine receptor sites (GABAA receptor complex). In words: Displacement of ^3 H-flunitrazepam (^3 H-FNM) binding to rat cerebral cortex membranes. Further details: species or system male Wistar rats (cerebral cortex). The following applies: ^3 H-FNM 1 nM, 40 min at 2° C., pH 7.1, non-specific binding with clonazepam 1 μM, read-out: IC50 (concentration of the test substance which inhibits the specific binding of ^3 H-FNM by 50%). An excerpt: At present two types of GABA receptors are known, the GABAA and the GABAB receptors. […] Activation of GABA receptors leads to alternations in membrane potential (hyperpolarization). The GABAA receptors are associated with chloride influx through its associated and integrated chloride channel, whereas GABAB receptor activation indirectly alters potassium and calcium channels as well as modifies second messenger production. The GABAA recognition sites can be activated by GABA, muscimol; and isoguvacine for example, but not by GABAB agonists such as for example baclofen. The modulatory GABAA recognition site at the benzodiazepine receptor sites can be selectively radiolabelled with ^3 H-flunitrazepam. The affinity of various potential ligands for the benzodiazepine receptor sites can thus be evaluated by estimating the ability of test compounds to displace ^3 H-flunitrazepam.
Preparations are performed at 0-4° C. unless otherwise indicated. Cerebral cortex from male Wistar rats (150-200 g) is homogenized for 5-10 sec in 20 ml Tris-HCl (30 mM, pH 7.4) using an Ultra-Turrax homogenizer. […]
The membrane preparation is thawed and centrifuged at 2° C. for 10 min at 27,000× g. […] Non-specific binding is determined using clonazepam (1 μM, final concentration). […] The amount of radioactivity on the filters is determined by conventional liquid scintillation counting. […]

Take `c1cc(-n2ccnc2)cc(-n2cnc3cc(-c4ccoc4)ccc32)c1` [1-(3-(1-Imidazolyl)phenyl)-5-(3-furanyl)benzimidazole]: the IC50 worked out at 0.4 nM.
For the compound `Cc1nccn1-c1cccc(-n2cnc3cc(-c4ccoc4)ccc32)c1` [1-(3-(2-Methylimidazol-1-yl)phenyl)-5-(3-furanyl)benzimidazole], the IC50 came to 0.4 nM.

For the origin of these results see US5922724A, “Benzimidazole compounds and their use as modulators of the GABA a receptor complex” (Neurosearch A/S, priority 1995, dated 1999).
